In patent US9139574B2, “Tumor targeted drug combretastatin A4 derivative” (Nanjing Sanhome Pharmaceutical Co., Ltd., priority 2011, dated 2015):

Assays:
NCI-H460 = assay: MTT assay of anti-tumor activity, NCI-H460; assay type: cell-based; conditions: NCI-H460 cells
Protocol: (§1) The cells were digested and counted. The cell suspension was prepared in a concentration of 5×10^4 cells/ml. 100 μL of the cell suspension per well was added into 96-well plates (5×10^3 cells per well). The 96-well plates were placed in a 5% CO2 incubator at 37° C. for 24 hours. The drugs were diluted with the complete medium to the desired concentrations. 100 μL of the corresponding drug-containing medium was added into each well. Negative control group, vehicle control group and positive control group were set. The 96-well plates were placed in 5% CO2 incubator at 37° C. for 72 hours. The 96-well plates were subjected to a MTT assay, and measured OD value at λ=490 nm. The measurement procedure comprises adding 20 μL MTT (5 mg/ml) for each well, incubating for 4 hours in an incubator, discarding the medium, dissolving by adding 150 μL DMSO into each well, mixing uniformly by rocking gently for 10 minutes on a shaker, reading OD value of each well in a microplate reader at λ=490 nm. The inhibition rate was calculated, the results were recorded, and the anti-tumor activity was assessed.

HCT-116 = assay: MTT assay of anti-tumor activity, HCT-116; assay type: cell-based; conditions: HCT-116 cells
Protocol: as §1

tubulin = assay: Inhibitory activity on tubulin polymerization (kit BK011P, Cytoskeleton); assay type: biochemical; conditions: 37° C., 60 minutes, fluorescence, Vmax
Protocol: The compounds were formulated into six different concentrations (0.03, 0.3, 0.9, 3, 9, 30 μM). The tubulin polymerization assay kit (Cat. # BK011P, Cytoskeleton) was used for testing. The samples were incubated at 37° C. for 60 minutes, and then fluorescence was collected using Gemini EM Fluorescence Microplate Reader collected at 410-460 nm. Vmax was calculated using SOFTMAX® PRO microplate data acquisition & analysis software. The tubulin inhibition (IC50) of the compound was calculated using GRAPHPAD PRISM® v5.01 graphing and statistics software.

K562 = assay: MTT assay of anti-tumor activity, K562; assay type: cell-based; conditions: K562 cells
Protocol: as §1

DU-145 = assay: MTT assay of anti-tumor activity, DU-145; assay type: cell-based; conditions: DU-145 cells
Protocol: as §1

MCF-7 = assay: MTT assay of anti-tumor activity, MCF-7; assay type: cell-based
Protocol: as §1

[1] = Homo sapiens, MCF7, 72 h, MCF-7 cells

| IC50 (NCI-H460; Homo sapiens, NCI-H460, 72 h) [nM] | IC50 (HCT-116; Homo sapiens, HCT-116, 72 h) [nM] | IC50 (tubulin) [nM] | IC50 (K562; Homo sapiens, K562, 72 h) [nM] | IC50 (DU-145; Homo sapiens, DU-145, 72 h) [nM] | IC50 (MCF-7; [1]) [nM] | melting point [°C] | SMILES | other results |
| --- | --- | --- | --- | --- | --- | --- | --- | --- |
| 21 | 151 |  | 8.9 |  | 21 |  | COc1ccc(-c2c(-c3cc(OC)c(OC)c(OC)c3)ncn2-c2cc(OC)c(OC)c(OC)c2)cc1O [Compound C105, 5-(3-hydroxy-4-methoxyphenyl)-4-(3,4,5-trimethoxyphenyl)-1-(3,4,5-trimethoxyphenyl)imidazole] |  |
| > 300 | 136 |  | 3.2 | 92.3 | 7.3 | 168.8 to 170.9 | COc1cc(-c2ncn(-c3cc(OC)c(OC)c(OC)c3)c2-c2ccc(N(C)C)cc2)cc(OC)c1OC [Compound C106, 5-(4-dimethylaminophenyl)-4-(3,4,5-trimethoxyphenyl)-1-(3,4,5-trimethoxyphenyl)imidazole] |  |
| 33 | 71 | 470 | 49 | 2.5 | 210 | 149.9 to 151.6 | COc1cc(OC)cc(-c2ncoc2-c2ccc(OC)c(O)c2)c1 [Compound C110, 4-(3,5-dimethoxyphenyl)-5-(3-hydroxy-4-methoxyphenyl)oxazole] |  |
| 52 | 335 | 460 | 5.7 | > 300 | 101 |  | COc1cc(OC)cc(-c2ncoc2-c2ccc(OC)c(N)c2)c1 [Compound C115, 4-(3,5-dimethoxyphenyl)-5-(3-amino-4-methoxyphenyl)oxazole] |  |
|  |  | 530 |  |  |  | 178.6 to 180.4 | COc1cc(OC)cc(-c2ncoc2-c2ccc(OC)c(O)c2O)c1 [Compound C116, 4-(3,5-dimethoxyphenyl)-5-(2,3-dihydroxy-4-methoxyphenyl)oxazole] |  |
| 10.2 | > 300 |  | 8.5 | 130 | 88.9 | 168.1 to 172.4 | COc1cc(OC)cc(-c2ncoc2-c2ccc(OC)c(O)c2F)c1 [Compound C117, 4-(3,5-dimethoxyphenyl)-5-(2-fluoro-3-hydroxy-4-methoxyphenyl)oxazole] |  |
| 14.3 | 40.5 | 490 | 2.8 |  | 46.3 |  | COc1cc(OC)cc(-c2nc[nH]c2-c2ccc(OC)c(O)c2)c1 [Compound C118, 4-(3,5-dimethoxyphenyl)-5-(3-hydroxy-4-methoxyphenyl)-imidazole] |  |
|  |  | 2350 |  |  |  | 132.6 to 134 | COc1cc(OC)cc(-c2ncoc2-c2ccc(OC)c(N)c2N)c1 [Compound C121, 4-(3,5-dimethoxyphenyl)-5-(2,3-diamino-4-methoxyphenyl)oxazole] |  |
|  | > 300 | 660 | 7.2 | > 300 | 1.2 | 149.9 to 151.6 | CNc1ccc(-c2ocnc2-c2cc(OC)cc(OC)c2)cc1O [Compound C123, 4-(3,5-dimethoxyphenyl)-5-(3-hydroxy-4-methylaminophenyl)oxazole] | IC50 (HCT-116; 72 hours): 189 nM |
| > 300 | 33 | 1040 | 6.4 | 280 | 4.3 |  | COc1cc(OC)cc(-c2ncoc2-c2ccc(OC)c(O)c2N)c1 [Compound C124, 4-(3,5-dimethoxyphenyl)-5-(2-amino-3-hydroxy-4-methoxyphenyl)oxazole] |  |
|  |  | 660 |  |  |  |  | COc1cc(OC)cc(-c2nc[nH]c2-c2ccc(OC)c(N)c2)c1 [Compound C129, 4-(3,5-dimethoxyphenyl)-5-(3-amino-4-methoxyphenyl)imidazole] |  |
| 350 | 25 |  | 23 |  |  |  | COc1cc(OC)cc(-c2nc[nH]c2-c2ccc(N(C)C)cc2)c1 [Compound C130, 4-(3,5-dimethoxyphenyl)-5-(4-dimethylaminophenyl)imidazole] | IC50 (NCI-H460; 72 hours): > 300 nM; IC50 (K562; 72 hours): 21.3 nM |
| 90.1 | 52 |  | 4.5 | > 300 | 7.8 |  | COc1cc(OC)cc(-c2ncn(C)c2-c2ccc(OC(F)(F)F)c(N)c2)c1 [Compound C132, 4-(3,5-dimethoxyphenyl)-5-(3-amino-4-trifluoromethoxyphenyl)-1-methylimidazole] |  |
| 76.3 | 68 |  | 6.9 | 161 | 5.6 | 99.2 to 101.3 | COc1cc(OC)cc(-c2ncn(C)c2-c2ccc(OC(F)F)c(N)c2)c1 [Compound C135, 4-(3,5-dimethoxyphenyl)-5-(3-amino-4-difluoromethoxyphenyl)-1-methylimidazole] |  |
| 62 | 416 |  | 4.2 | 4.1 | 11.3 |  | COc1cc(OC)cc(-c2ncoc2-c2ccc(OC(F)(F)F)c(O)c2)c1 [Compound C142, 4-(3,5-dimethoxyphenyl)-5-(3-hydroxy-4-trifluoromethoxyphenyl)oxazole] |  |
|  | 289 |  | 6.1 | > 300 | 9.3 |  | COc1cc(OC)cc(-c2nc[nH]c2-c2ccc(OC)c(N)c2O)c1 [Compound C146, 4-(3,5-dimethoxyphenyl)-5-(2-hydroxy-3-amino-4-methoxyphenyl)imidazole] |  |
| 89.3 | > 300 |  | 7.6 | 123 | 8.9 |  | COc1cc(OC)cc(-c2nc[nH]c2-c2ccc(OC)c(O)c2N)c1 [Compound C147, 4-(3,5-dimethoxyphenyl)-5-(2-amino-3-hydroxy-4-methoxyphenyl)imidazole] |  |
| > 300 | 34 |  | 6.8 |  | 10.2 |  | COc1cc(OC)cc(-c2nc[nH]c2-c2ccc(OC(F)(F)F)c(N)c2)c1 [Compound C152, 4-(3,5-dimethoxyphenyl)-5-(3-amino-4-trifluoromethoxyphenyl)imidazole] |  |
|  |  |  |  |  |  |  | COc1cc(OC)cc(-c2ncn(C)c2-c2scc3c2OCCO3)c1 [Compound C238, N-methyl-4-(3,5-dimethoxyphenyl)-5-[(3,4-ethylenedioxyl)thienyl]imidazole] | IC50 (NCI-H460; 72 hours): > 300 nM; IC50 (HCT-116; 72 hours): 230 nM; IC50 (K562; 72 hours): 11.2 nM; IC50 (DU-145; 72 hours): 150 nM; IC50 (MCF-7; MCF-7 cells, 72 hours): 6.1 nM |
|  |  |  |  |  |  |  | COc1cc(-c2ncn(CCO)c2-c2ccc(N(CCCl)CCCl)cc2)cc(OC)c1OC [Compound C248] | IC50 (NCI-H460; 72 hours): 10.3 nM; IC50 (HCT-116; 72 hours): 312 nM; IC50 (K562; 72 hours): 11.2 nM; IC50 (DU-145; 72 hours): > 300 nM; IC50 (MCF-7; MCF-7 cells, 72 hours): 6.9 nM |
|  |  |  |  |  |  |  | COc1cc(OC)cc(-c2ncoc2-c2ccc3c(c2)NC(=O)CO3)c1 [Compound C253, 4-(3,5-dimethoxyphenyl)-5-[6-(3-oxobenzomorpholiny)]oxazole] | IC50 (NCI-H460; 72 hours): 26.4 nM; IC50 (HCT-116; 72 hours): 121 nM; IC50 (K562; 72 hours): 310 nM; IC50 (DU-145; 72 hours): 76.2 nM; IC50 (MCF-7; MCF-7 cells, 72 hours): 6.4 nM |
| > 300 | 460 | 1570 | 7.6 | 10.3 |  |  | COc1cc(OC)cc(-c2ncn(CCO)c2-c2ccc(OC)c(F)c2)c1 [Compound C256, N-hydroxyethyl-4-(3,5-dimethoxyphenyl)-5-(3-fluoro-4-methoxyphenyl)imidazole] |  |
|  |  | 860 |  |  |  |  | CNc1ccc(-c2ocnc2-c2cc(OC)cc(OC)c2)cc1F [Compound C264, 4-(3,5-dimethoxyphenyl)-5-(3-fluoro-4-methylaminophenyl)oxazole] |  |

| SMILES | IC50 (NCI-H460; Homo sapiens, NCI-H460, 72 h) [nM] | IC50 (HCT-116; Homo sapiens, HCT-116, 72 h) [nM] | IC50 (tubulin) [nM] | IC50 (K562; Homo sapiens, K562, 72 h) [nM] | IC50 (DU-145; Homo sapiens, DU-145, 72 h) [nM] | IC50 (MCF-7; [1]) [nM] | melting point [°C] | other results |
| --- | --- | --- | --- | --- | --- | --- | --- | --- |
| COc1ccc(/C=C\c2cc(OC)c(OC)c(OC)c2)cc1O [CA4, cis-1-(3,4,5-trimethoxyphenyl)-2-(3′-hydroxy-4′-methoxyphenyl)ethylene, reference compound] | 5.6 | 43 | […] | 5.2 | 7.2 | 5.5 |  |  |
| COc1ccc(-c2c(-c3cc(OC)c(OC)c(OC)c3)ncn2-c2ccccc2)cc1O [Compound C087, 5-(3-hydroxy-4-methoxyphenyl)-4-(3,4,5-trimethoxyphenyl)-1-phenylimidazole] |  |  |  |  |  |  | 176 to 177 | IC50 (NCI-H460; Homo sapiens, 72 hours): 153 nM; IC50 (HCT-116; Homo sapiens, 72 hours): 77 nM; IC50 (K562; Homo sapiens, 72 hours): 4.6 nM; IC50 (DU-145; Homo sapiens, 72 hours): > 300 nM; IC50 (MCF-7; Homo sapiens, MCF7, MCF-7 cells, 72 hours): 6.2 nM |
